Assays:
[1] = tested on: platelet aggregation (GPIIb/IIIa receptors on platelets); assay: inhibition of platelet aggregation, in vitro activity (FIG. 1, FIG. 2); format: cell-based; details: for in vitro activity (inhibition of platelet aggregation) compared with unmodified 7E3 Fab′: FIG. 1, versus unmodified Fab; for binding activity / in vitro activity (inhibition of platelet aggregation) compared with unmodified antibody fragment ReoPro: FIG. 2; for in vitro activity (inhibition of platelet aggregation) compared with unmodified antibody fragment ReoPro: versus ReoPro
From the text: FIG. 1 depicts a comparison of the inhibition of platelet aggregation by two pseudo-antibodies (7E3 Fab′ (PEG3.4K-DSPE)2 and 7E3 Fab′ (PEG3.4K-PAL)2) and one unmodified antibody fragment (7E3 Fab).
FIG. 2 depicts a comparison of the inhibition of platelet aggregation by two pseudo-antibodies (7E3 Fab′ (PEG5K)2 and 7E3 Fab′ (PEG10K)2) and one unmodified antibody fragment (ReoPro®).
The organic moieties portions of these constructs may also be dimerized, such that n=2. For example, the antibody fragment 7E3 Fab′ was used to construct the pseudo-antibody 7E3 Fab′ (PEG3.4k-DSPE)2 and the pseudo-antibody 7E3 Fab′ (PEG3.4.k-PAL)2 and the in vitro activities were compared with unmodified 7E3 Fab′.
Additionally, 7E3 Fab′ was used to construct the pseudo-antibodies 7E3 Fab′ (PEG5k)2 and 7E3 Fab′ (PEG10k)2 and the in vitro activites were compared with the unmodified antibody fragment ReoPro®.

[2] = in vivo pharmacokinetic analysis, circulating half-life / clearance in mice (FIG. 3); details: equimolar doses
Experimental: FIG. 3 depicts a comparison of in vivo circulating half-life, in mice, of two pseudo-antibodies, 7E3 Fab′ (PEG3.4K-DSPE)2 and 7E3 Fab′ (PEG5K)2.
For in vivo pharmacokinetic analysis, c7E3 Fab′ (PEG3.4k-DSPE)2 and c7E3 Fab′ (PEG5k) were prepared, and given to mice in equimolar doses. The results are depicted in FIG. 3.

MMP 2 = target: T1, MMP 2 (Homo sapiens, UniProt P08253); details: cited from earlier work
T1 sequence (P08253 110-660): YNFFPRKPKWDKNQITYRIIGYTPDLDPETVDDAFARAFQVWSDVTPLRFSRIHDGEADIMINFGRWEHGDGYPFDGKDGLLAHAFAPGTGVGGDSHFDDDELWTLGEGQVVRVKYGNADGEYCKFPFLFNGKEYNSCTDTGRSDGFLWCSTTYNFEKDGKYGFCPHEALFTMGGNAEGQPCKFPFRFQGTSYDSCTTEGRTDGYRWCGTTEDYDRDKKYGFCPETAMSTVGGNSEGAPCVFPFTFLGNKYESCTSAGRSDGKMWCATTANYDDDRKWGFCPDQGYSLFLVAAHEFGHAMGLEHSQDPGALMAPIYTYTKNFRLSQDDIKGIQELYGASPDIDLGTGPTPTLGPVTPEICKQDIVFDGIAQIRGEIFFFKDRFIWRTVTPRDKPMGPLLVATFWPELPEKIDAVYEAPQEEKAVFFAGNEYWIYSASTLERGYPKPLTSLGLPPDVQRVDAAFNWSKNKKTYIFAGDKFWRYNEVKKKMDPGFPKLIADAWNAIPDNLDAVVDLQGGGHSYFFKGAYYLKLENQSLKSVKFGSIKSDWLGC

MMP 3 = MMP 3 (Homo sapiens, UniProt P08254); details: cited from earlier work
MMP 9 = MMP 9 (Homo sapiens, UniProt P14780); details: cited from earlier work
adjuvant arthritic rat = details: bone mineral density, MRI, micro-CT, histology; cited from earlier work
[3] = cited from earlier work

Chain of MMP 9 (P14780 94-707): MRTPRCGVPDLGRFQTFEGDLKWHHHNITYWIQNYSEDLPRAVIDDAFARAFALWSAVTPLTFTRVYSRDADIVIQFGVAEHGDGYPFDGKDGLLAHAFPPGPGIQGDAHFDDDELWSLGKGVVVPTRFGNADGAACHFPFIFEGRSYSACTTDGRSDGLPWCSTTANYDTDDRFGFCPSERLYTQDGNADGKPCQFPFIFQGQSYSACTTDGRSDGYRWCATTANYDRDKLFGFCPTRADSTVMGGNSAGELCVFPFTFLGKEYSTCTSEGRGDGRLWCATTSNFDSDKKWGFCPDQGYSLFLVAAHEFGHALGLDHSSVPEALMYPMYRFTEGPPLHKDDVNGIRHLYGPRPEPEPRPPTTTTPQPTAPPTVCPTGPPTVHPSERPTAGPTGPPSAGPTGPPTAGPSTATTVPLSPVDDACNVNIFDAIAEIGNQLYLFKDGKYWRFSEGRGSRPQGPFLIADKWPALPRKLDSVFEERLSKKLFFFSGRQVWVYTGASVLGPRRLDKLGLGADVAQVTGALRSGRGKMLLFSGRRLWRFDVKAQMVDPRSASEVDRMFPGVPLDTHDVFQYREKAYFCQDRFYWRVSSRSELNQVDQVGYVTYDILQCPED
Chain of MMP 3 (P08254 100-477): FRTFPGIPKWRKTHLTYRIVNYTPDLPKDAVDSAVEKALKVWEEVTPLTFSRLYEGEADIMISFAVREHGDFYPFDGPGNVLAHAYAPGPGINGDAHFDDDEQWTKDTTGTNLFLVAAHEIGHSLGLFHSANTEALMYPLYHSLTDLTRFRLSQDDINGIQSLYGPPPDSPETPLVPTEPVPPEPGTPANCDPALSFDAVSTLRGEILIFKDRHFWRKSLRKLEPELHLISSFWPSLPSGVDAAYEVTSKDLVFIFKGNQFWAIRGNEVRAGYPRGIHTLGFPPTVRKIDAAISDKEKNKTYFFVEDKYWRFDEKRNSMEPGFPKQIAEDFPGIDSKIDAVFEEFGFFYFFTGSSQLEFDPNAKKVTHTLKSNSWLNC

Molecule: 7E3 Fab′ (PEG3.4k-DSPE)2: pseudo-antibody: 7E3 Fab′ fragment with two PEG3.4k chains each ending in diesteroylphosphatidyl-ethanolamine (DSPE)
- in vitro activity (inhibition of platelet aggregation) compared with unmodified 7E3 Fab′ [1]: similar
- rate of clearance [2]: slower rate of clearance

Molecule: 7E3 Fab′ (PEG5k)2: pseudo-antibody: 7E3 Fab′ fragment with two PEG5k chains
- binding activity [1]: binding activity was clearly retained
- in vitro activity (inhibition of platelet aggregation) compared with unmodified antibody fragment ReoPro [1]: somewhat lower in vitro activity than the unmodified antibody fragment

Molecule: 7E3 Fab′ (PEG10k)2: pseudo-antibody: 7E3 Fab′ fragment with two PEG10k chains
- binding activity [1]: binding activity was clearly retained
- in vitro activity (inhibition of platelet aggregation) compared with unmodified antibody fragment ReoPro [1]: somewhat lower in vitro activity than the unmodified antibody fragment

Molecule: O=C(C[C@H](CSc1ccccc1)C(=O)O)c1ccc(-c2ccc(Cl)cc2)cc1 [BAY12-9566]
- inhibitory activity against MMP 2 (MMP 2): nM inhibitory activity
- inhibitory activity against MMP 3 (MMP 3): nM inhibitory activity
- inhibitory activity against MMP 9 (MMP 9): nM inhibitory activity

Molecule: COc1nccc(-c2c(-c3ccc(F)cc3)ncn2C2CCNCC2)n1 [SB 242235]
- activity in the adjuvant arthritic rat (adjuvant arthritic rat): inhibits inflammation and has significant joint-protective effects

Molecule: CCCCS(=O)(=O)N[C@@H](Cc1ccc(OCCCCC2CCNCC2)cc1)C(=O)O [Tirofiban]
- in vivo circulatory half-life [3]: approximately two

Molecule: c7E3 Fab′ (PEG5k): pseudo-antibody of c7E3 Fab′ with PEG5k, given to mice; probably the same as 7E3 Fab′ (PEG5K)2 of FIG. 3
- rate of clearance [2]: cleared faster

B1: 7E3 Fab′ (PEG3.4.k-PAL)2: pseudo-antibody: 7E3 Fab′ fragment with two PEG3.4k chains each ending in palmatoyl (PAL) (conjugate, chains of the INN, looked up)
VH: EVQLQQSGTVLARPGASVKMSCEASGYTFTNYWMHWVKQRPGQGLEWIGAIYPGNSDTSYIQKFKGKAKLTAVTSTTSVYMELSSLTNEDSAVYYCTLYDGYYVFAYWGQGTLVTVSA
VL: EIVLTQSPVTLSVTPGDSVSLSCRASRDISNNLHWFQQTSHESPRLLIKYASQSMSGIPSRFSGSGSGTDFTLSINSVETEDFGMYFCQQTNSWPYTFGGGTKLEIK
modifications: Fab' two PEG3.4k-palmitoyl chains
- in vitro activity (inhibition of platelet aggregation) compared with unmodified 7E3 Fab′ [1]: similar
